Assays:
MCF7 = assay: Cytotoxicity against human MCF7 cells after 72 hrs using Calcein AM by fluorescence assay; assay type: functional, cell-based; settings: MCF7, 72 h
K562 = assay: Cytotoxicity against human K562 cells after 72 hrs using Calcein AM by fluorescence assay; assay type: functional, cell-based; settings: K562, 72 h
[1] = target: Cyclin-dependent kinase 2/cyclin E1 (Homo sapiens, UniProt P24941); assay: Inhibition of CDK2/Cyclin E (unknown origin) using histone H1 as substrate by [gamma-33P]ATP assay; assay type: protein-complex assay
[2] = target: Tyrosine-protein kinase ABL1 (Homo sapiens, UniProt P00519); assay: Inhibition of Abl (unknown origin) using GGEAIYAAPFKK peptide as substrate by [gamma-33P]ATP assay
Carbonic anhydrase 1 = Carbonic anhydrase 1 (Homo sapiens, UniProt P00915); assay: Inhibition of human carbonic anhydrase 1 preincubated for 15 mins by CO2 hydration assay
Carbonic anhydrase 2 = Carbonic anhydrase 2 (Homo sapiens, UniProt P00918); assay: Inhibition of human carbonic anhydrase 2 preincubated for 15 mins by CO2 hydration assay
Carbonic anhydrase 9 = Carbonic anhydrase 9 (Homo sapiens, UniProt Q16790); assay: Inhibition of human carbonic anhydrase 9 preincubated for 15 mins by CO2 hydration assay
Carbonic anhydrase 12 = Carbonic anhydrase 12 (Homo sapiens, UniProt O43570); assay: Inhibition of human carbonic anhydrase 12 preincubated for 15 mins by CO2 hydration assay
Carbonic anhydrase 12, sequence (O43570 whole entry): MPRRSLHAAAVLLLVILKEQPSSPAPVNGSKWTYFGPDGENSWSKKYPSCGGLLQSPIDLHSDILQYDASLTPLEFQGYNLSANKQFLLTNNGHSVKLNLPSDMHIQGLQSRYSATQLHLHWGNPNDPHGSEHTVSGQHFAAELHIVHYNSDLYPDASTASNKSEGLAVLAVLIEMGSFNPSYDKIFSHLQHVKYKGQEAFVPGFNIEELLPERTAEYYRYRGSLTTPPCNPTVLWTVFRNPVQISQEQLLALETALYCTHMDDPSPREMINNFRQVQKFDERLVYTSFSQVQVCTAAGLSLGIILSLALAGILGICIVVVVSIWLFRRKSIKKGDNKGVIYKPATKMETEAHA

Tyrosine-protein kinase ABL1, sequence (P00519 whole entry): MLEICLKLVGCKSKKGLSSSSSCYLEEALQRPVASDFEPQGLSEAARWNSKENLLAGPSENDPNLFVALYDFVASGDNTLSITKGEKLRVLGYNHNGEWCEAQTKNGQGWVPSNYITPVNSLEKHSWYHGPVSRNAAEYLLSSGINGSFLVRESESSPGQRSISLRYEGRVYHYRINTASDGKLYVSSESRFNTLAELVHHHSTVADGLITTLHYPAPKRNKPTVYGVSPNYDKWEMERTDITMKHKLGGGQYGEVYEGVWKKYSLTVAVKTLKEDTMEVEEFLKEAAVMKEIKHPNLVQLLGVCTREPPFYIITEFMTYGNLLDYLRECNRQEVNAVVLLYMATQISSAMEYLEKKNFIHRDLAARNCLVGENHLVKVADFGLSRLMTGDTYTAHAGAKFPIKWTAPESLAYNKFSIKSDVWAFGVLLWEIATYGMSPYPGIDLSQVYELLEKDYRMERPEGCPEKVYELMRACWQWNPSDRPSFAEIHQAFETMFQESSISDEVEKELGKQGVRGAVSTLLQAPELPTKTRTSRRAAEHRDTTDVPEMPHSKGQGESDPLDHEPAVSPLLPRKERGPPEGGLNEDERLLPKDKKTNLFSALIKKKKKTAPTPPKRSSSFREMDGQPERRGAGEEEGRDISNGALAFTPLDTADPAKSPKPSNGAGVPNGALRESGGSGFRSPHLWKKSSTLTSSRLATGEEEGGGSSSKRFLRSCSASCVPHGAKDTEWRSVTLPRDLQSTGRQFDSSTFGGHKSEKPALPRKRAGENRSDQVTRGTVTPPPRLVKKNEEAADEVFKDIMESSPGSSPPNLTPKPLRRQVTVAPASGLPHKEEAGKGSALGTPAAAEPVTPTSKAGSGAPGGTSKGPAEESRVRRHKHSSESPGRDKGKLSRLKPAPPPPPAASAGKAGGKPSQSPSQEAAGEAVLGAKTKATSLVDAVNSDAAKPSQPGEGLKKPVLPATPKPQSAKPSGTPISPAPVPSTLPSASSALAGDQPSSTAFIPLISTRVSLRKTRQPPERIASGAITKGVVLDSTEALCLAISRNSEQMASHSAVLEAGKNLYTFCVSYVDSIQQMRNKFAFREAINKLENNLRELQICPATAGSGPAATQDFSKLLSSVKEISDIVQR
Carbonic anhydrase 1, sequence (P00915 whole entry): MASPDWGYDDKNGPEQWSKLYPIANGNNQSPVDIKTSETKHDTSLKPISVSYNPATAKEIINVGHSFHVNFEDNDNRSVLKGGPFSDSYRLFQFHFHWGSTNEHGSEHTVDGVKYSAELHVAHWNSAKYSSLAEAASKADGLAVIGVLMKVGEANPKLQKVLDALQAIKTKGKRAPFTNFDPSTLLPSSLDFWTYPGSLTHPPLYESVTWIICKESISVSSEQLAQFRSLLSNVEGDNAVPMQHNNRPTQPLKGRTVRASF

SMILES | IC50 [1] | IC50 [2] | Ki (Carbonic anhydrase 1) | Ki (Carbonic anhydrase 2) | Ki (Carbonic anhydrase 9) | Ki (Carbonic anhydrase 12) | IC50 (MCF7) | IC50 (K562)
Cc1ccc(NC(=O)c2ccc(CN3CCN(C)CC3)cc2)cc1Nc1nccc(-c2cccnc2)n1 [IMATINIB] |  |  |  |  |  |  | > 10 µM | 
CCOc1ccc(S(=O)(=O)NC(C)(CO)CO)cc1-c1nnc2c(n1)c(C)nn2C | > 100 µM | > 100 µM | > 10 µM | > 10 µM | 0.0326 µM | 0.0409 µM | > 100 µM | > 100 µM
CCOc1ccc(S(=O)(=O)N2CCN(C)CC2)cc1-c1nnc2c(n1)c(C)nn2C | > 50 µM | > 50 µM | > 10 µM | > 10 µM | 0.0377 µM | 0.636 µM | > 25 µM | > 25 µM
CCOc1ccc(S(=O)(=O)N2CCNCC2)cc1-c1nnc2c(n1)c(C)nn2C | > 50 µM | > 50 µM | > 10 µM | > 10 µM | 0.0401 µM | 0.616 µM | > 25 µM | > 25 µM
CCCc1nn(C)c2nnc(-c3cc(S(=O)(=O)N4CCNCC4)ccc3OCC)nc12 |  |  | > 10 µM | > 10 µM | 0.0387 µM | 0.0038 µM |  | 
CCCc1nn(C)c2nnc(-c3cc(S(=O)(=O)N4CCN(C)CC4)ccc3OCC)nc12 | > 25 µM | > 50 µM | > 10 µM | > 10 µM | 0.0154 µM | 0.629 µM | > 25 µM | > 25 µM
CCOc1ccc(S(=O)(=O)NCCN2CCOCC2)cc1-c1nnc2c(n1)c(C)nn2C | > 50 µM | > 50 µM | > 10 µM | > 10 µM | 0.0398 µM | 0.0595 µM | > 25 µM | > 25 µM
CCOc1ccc(S(=O)(=O)NCCN)cc1-c1nnc2c(n1)c(C)nn2C | > 50 µM | > 50 µM | > 10 µM | > 10 µM | 0.0334 µM | 0.0573 µM | > 25 µM | > 25 µM

Further lines, with some results ahead:

IC50 [1] | IC50 [2] | Ki (Carbonic anhydrase 1) | Ki (Carbonic anhydrase 2) | Ki (Carbonic anhydrase 9) | Ki (Carbonic anhydrase 12) | SMILES | IC50 (MCF7) | IC50 (K562)
44.3 µM | 5.9 µM | > 10 µM | > 10 µM | 0.0309 µM | 0.667 µM | CCOc1ccc(S(=O)(=O)N2CCCNCC2)cc1-c1nnc2c(n1)c(C)nn2C | > 25 µM | > 25 µM
> 50 µM | > 50 µM | > 10 µM | > 10 µM | 0.0403 µM | 0.606 µM | CCOc1ccc(S(=O)(=O)N2CCCC2)cc1-c1nnc2c(n1)c(C)nn2C | > 25 µM | > 25 µM
> 100 µM | > 100 µM | > 10 µM | > 10 µM | 0.0313 µM | 0.608 µM | CCOc1ccc(S(=O)(=O)NC(C)(C)CO)cc1-c1nnc2c(n1)c(C)nn2C | > 100 µM | > 100 µM
> 50 µM | > 50 µM | > 10 µM | > 10 µM | 0.0424 µM | 0.281 µM | CCOc1ccc(S(=O)(=O)N(CC)CC)cc1-c1nnc2c(n1)c(C)nn2C | > 25 µM | > 25 µM
> 50 µM | > 50 µM | > 10 µM | > 10 µM | 0.0244 µM | 0.0302 µM | CCOc1ccc(S(=O)(=O)N2CCOCC2)cc1-c1nnc2c(n1)c(C)nn2C | > 25 µM | > 25 µM
> 50 µM | > 50 µM | > 10 µM | > 10 µM | 0.0381 µM | 0.0073 µM | CCOc1ccc(S(=O)(=O)NCCO)cc1-c1nnc2c(n1)c(C)nn2C | > 25 µM | > 25 µM
> 25 µM | > 25 µM | > 10 µM | > 10 µM | 0.0281 µM | 0.579 µM | CCOc1ccc(S(=O)(=O)N2CCCCC2)cc1-c1nnc2c(n1)c(C)nn2C | > 25 µM | > 25 µM
 |  | 6.83 µM | 0.422 µM | 0.0316 µM | 0.0055 µM | CCOc1ccc(S(N)(=O)=O)cc1-c1nnc2c(n1)c(C)nn2C |  | 

Reference: ChEMBL document CHEMBL3400118, “New approaches to the synthesis of sildenafil analogues and their enzyme inhibitory activity” (Bioorg Med Chem, 2015)
